Data from patent US6780995B2, “Activated iododerivatives for the treatment of cancer and aids” (Isotechnika Inc., priority 1997, dated 2004).
Where two headings read alike, the source gives them in different places.

What was measured:
[1] = test system: A549 cells; assay: IC50 assay, inhibition of cell proliferation and growth, A549; type: cell-based, human; details: Homo sapiens
Method: (§1) Cell culture: The human cell lines were propagated under sterile conditions in RPMI 1640 (CellGrow) with 10% fetal bovine serum (Hyclone), 2 mM L-glutamine, and sodium bicarbonate (complete medium) and incubated at 37° C. in HEPA-filtered Sterilcult CO2 tissue culture incubators (Forma) with 5% CO^2 and 95% humidity (Table 1). The murine leukemia cell lines were propagated in Dulbecco's MEM media with 10% equine serum (Hyclone), 2 mM L-glutamine, and sodium bicarbonate (complete medium) and incubated as described. The cells were subcultured twice weekly and used in experiments. The culture was screened for mycoplasma contamination using GeneProbe™ (Fisher) and positive cultures were cured of contaminants over three passages using constant treatment with BM-Cyclin™ antibiotic combination (Boehringer Mannheim). Only cultures confirmed as mycoplasma free were used in testing compounds for anticellular activity.
(§2) The test compounds were stored at 4° C. under light protected conditions. The test compounds were weighed and dissolved in DMSO. The dissolved compounds were then serially diluted in warm medium (RPMI 1640 or Dulbecco's MEM) under constant mixing to minimize precipitation. The positive control drug doxorubicin was diluted in water followed by dilution in media to achieve a final concentration of 200 nM.
(§3) For all experiments, the cells were harvested and centrifuged to remove the media, and suspended in fresh completed medium. Samples were taken to determine cell density. The cell count was determined with a Coulter Model Z1 cell counter and viability was measured with propidium iodide staining followed by analysis on a Coulter EPPICS Elite Flow cytometer. The cell samples sere adjusted with complete medium to a density of 5×10^4/mL for adherent cell lines and 1×10^5/mL for suspension lines. Tissue culture cluster plates (96 well, cat. No. 3595 Costar for adherent human lines and cat No. 25850 Corning for murine leukemias) were seeded with 100 μL cells and incubated as described. Replicate groups of plates were set up for each line to accommodate the exposure options for single agents and combinations. For each dilution 8 wells (100 μL samples of cells) were treated with 100 μL of dosing solution one day after plating. Each cluster plate contained a cell control (8 wells, mock-treated with complete medium), a medium control (3 wells with medium used to subtract out signal generated by media conditions), and an air blank (1 well, for calibrating the plate reader).
(§4) Anticellular effects of the compounds for the adherent cell lines were assessed with neutral red dye. On the day of analysis, the media was removed from sample cell monolayers and replaced with 0.1 mL of neutral red solution (0.5% neutral red, HBSS:RPMI 1640 (1:1), 0.05 M HEPES, pH 7.2). After incubation of the samples at 37° C. for 1 hour the excess dye was removed with blotting and the monolayers were washed twice with 0.85% NaCl solution (0.1 mL per wash). The cell associated dye was extracted by adding 0.2 mL of a 0.1 M NaH2PO4:ethanol (1:1) solution/well followed by incubation for 1 hour at 35° C. The absorbency of neutral red in each monolayer was measured at 550 nm (620 nm reference beam) on a Denley Anthos 2001 microplate reader. The data were transferred via the ARCOM software capture program in Lotus 1-2-3 for processing.
(§5) In assays where technical difficulties due to crystalization of the neutral red occurred the crystal violet staining procedure was employed to measure the amount of cells were left on the plate. Crystal violet staining solution [0.5% crystal violet (w/v), 50% methanol (v/v), 45% saline (v/v), and 5% formalin (v/v)] were prepared on the day of staining. After the media was removed from the sample wells, two drops of crystal violet stain were added to each well and the samples were incubated at ambient temperature for 10 minutes. […]

[2] = test system: B16 cells; assay: IC50 assay, inhibition of cell proliferation and growth, B16; type: cell-based; details: Mus musculus; B16 murine melanoma cell line; neutral red or crystal violet; read-out: IC50 Concentrations, B16
Method: as §1, §2, §3, §4, §5

[3] = test system: M14 cells; assay: IC50 assay, inhibition of cell proliferation and growth, M14; type: cell-based, human; details: Homo sapiens
Method: as §1, §2, §3, §4, §5

[4] = test system: MCF7 cells; assay: IC50 assay, inhibition of cell proliferation and growth, MCF7; type: cell-based, human; details: Homo sapiens
Method: as §1, §2, §3, §4, §5

[5] = test system: SK-MEL-5 cells; assay: IC50 assay, inhibition of cell proliferation and growth, SK-MEL-5; type: cell-based, human; details: Homo sapiens
Method: as §1, §2, §3, §4, §5

[6] = test system: SK-OV-3 cells; assay: IC50 assay, inhibition of cell proliferation and growth, SK-OV-3; type: cell-based, human; details: Homo sapiens
Method: as §1, §2, §3, §4, §5

[7] = test system: COLO 205 cells; assay: IC50 assay, inhibition of cell proliferation and growth, COLO 205; type: cell-based, human; details: Homo sapiens
Method: as §1, §2, §3, §4, §5

[8] = test system: P388 cells; assay: IC50 assay (XTT), inhibition of cell proliferation and growth, P388; type: cell-based; details: Mus musculus; P388 murine leukemia cell line; XTT dye conversion; read-out: IC50 Concentrations, P388
Method: as §1, §2, §3
Anticellular effects of the murine leukemia cell lines were assessed with the XTT dye conversion assay which is more suited to suspension cultures. On the day of analysis XTT[2,3-bis(2-methoxy-4-nitro-5-sulfophenyl)-5-[(phenylamino)carbenyl]-2H-tetrazolium hydroxide, inner salt, sodium salt (Sigma)] was weighed out and dissolved at 1 mg/mL in media. PMS (phenazine methosulfate) was prepared at 5 mM in PBS (phosphate buffered saline) and stored as a stock solution 4° C. The PMS was mixed with dissolved XTT to a final concentration of 0.025 mM. Sample wells were treated with 50 μL of the XTT solution and the plates were incubated for four hours at 37° C. to allow for conversion into the liquid soluble formazan product. After the incubation period the reaction was stopped by adding 10 μL of 10% SDS solution per well and the wells contents of each plate were mixed by agitation. The absorbancy of formazan in each monolayer was measured at 450 nm (620 nm reference beam) on a Denley Anthos 2001 microplate reader. The data were transferred via the ARCOM software capture program into Lotus 1-2-3 for processing.
(§6) Using the procedures described above, concentrations of the Example compounds necessary to inhibit cell proliferation and growth by 50% (1C50 values) were determined in the test cell lines.

[9] = test system: RPMI 8226 cells; assay: IC50 assay, inhibition of cell proliferation and growth, RPMI 8226; type: cell-based; details: Homo sapiens, RPMI-8226, read-out: IC50 Concentrations, RPM 18226
Method: as §1, §2, §3, §6

[10] = A549 bronchogenic cell line, neutral red or crystal violet, read-out: IC50 Concentrations, A 549
[11] = M14 melanoma cell line, neutral red or crystal violet, read-out: IC50 Concentrations, M14
[12] = MCF7 breast adenocarcinoma cell line, neutral red or crystal violet, read-out: IC50 Concentrations, MCF 7
[13] = SK-MEL-5 melanoma cell line, neutral red or crystal violet, read-out: IC50 Concentrations, SK MEL-5
[14] = SK-OV-3 ovarian adenocarcinoma cell line, neutral red or crystal violet, read-out: IC50 Concentrations, SK-OV-3
[15] = COLO 205 colon adenocarcinoma cell line, neutral red or crystal violet, read-out: IC50 Concentrations, COLO 205
[16] = A549, read-out: IC50 Concentrations, A 549
[17] = M14, read-out: IC50 Concentrations, M14
[18] = MCF7, read-out: IC50 Concentrations, MCF 7
[19] = SK-MEL-5, read-out: IC50 Concentrations, SK MEL-5
[20] = SK-OV-3, read-out: IC50 Concentrations, SK-OV-3
[21] = COLO 205, read-out: IC50 Concentrations, COLO 205

Compound	IC50 [1, 10] [µM]	IC50 [2] [µM]	IC50 [3, 11] [µM]	IC50 [4, 12] [µM]	IC50 [5, 13] [µM]	IC50 [6, 14] [µM]	IC50 [7, 15] [µM]	melting point [°C]	IC50 [1, 16] [µM]	IC50 [3, 17] [µM]	IC50 [4, 18] [µM]	IC50 [5, 19] [µM]	IC50 [6, 20] [µM]	IC50 [7, 21] [µM]	IC50 [8] [µM]	IC50 [9] [µM]
O=C(Nc1nccs1)c1cc([N+](=O)[O-])ccc1I [Ref. No. 5, 2-(2′-Iodo-5′-Nitro-Benzamido)-Thiazole]	48.6	30.8	17.4	27	46.2	32.8	13.4	210 to 213	–	–	–	–	–	–	–	–
CN(C)CCNC(=O)c1cc([N+](=O)[O-])ccc1I [Ref. No. 1, (N,N-Dimethylaminoethyl)-2-Iodo-5-Nitro-Benzamide]	–	–	–	–	–	–	–	126 to 128	333	474	133	40.1	404	267	–	–
C=CCNC(=O)c1cc([N+](=O)[O-])ccc1I [Ref. No. 7, N-(Allyl)-2-Iodo-5-Nitro-Benzamide]	134	45.1	41.8	–	124	46.4	38.5	155 to 158	–	–	–	–	–	–	39.4	–
C=C(C)c1ccccc1NC(=O)c1cc([N+](=O)[O-])ccc1I [Ref. No. 9, N-(2′-Iodo-5′-Nitro-Benzoyl) 2-Isopropenyl Aniline]	> 500	462	> 500	100	> 500	> 500	–	155 to 158	–	–	–	–	–	–	–	–
O=C(Nc1ccc2c(C(F)(F)F)cc(=O)oc2c1)c1cc([N+](=O)[O-])ccc1I [Ref. No. 3, 7-(2′-Iodo-5′-Nitro-Benzamido)-4-Trifluoromethyl-2H-1-Benzopyran-2-one]	–	–	–	–	–	–	–	223 to 227	363	126	114	37.7	44	39.9	–	–
C#CCNC(=O)c1cc([N+](=O)[O-])ccc1I [Ref. No. 8, N-(Propargyl) 2-Iodo-5-Nitro-Benzamide]	46.6	50	49	47.7	90.4	43.4	30.6	204 to 206	–	–	–	–	–	–	25.8	–
NC(=O)c1cc([N+](=O)[O-])ccc1I [Ref. No. 15, 2-Iodo-5-Nitro-Benzamide]	37.4	134	36.1	–	314	141	33.2	260 to 264	–	–	–	–	–	–	–	–
O=C(c1cc([N+](=O)[O-])ccc1I)N(C(=O)c1cc([N+](=O)[O-])ccc1I)C1=NCCS1 [Ref. No. 17]	–	–	–	–	–	–	–	–	127	37.9	46.9	42.8	32	> 500	–	> 50
Cc1csc(N(C(=O)c2cc([N+](=O)[O-])ccc2I)C(=O)c2cc([N+](=O)[O-])ccc2I)n1 [Ref. No. 20]	–	–	–	–	–	–	–	–	48.4	15.1	36.1	47.1	10.8	42.6	–	13.7
CCN(CC)CCNC(=O)c1cc([N+](=O)[O-])ccc1I [Ref. No. 2, (N,N-Diethylaminoethyl)-2-Iodo-5-Nitro-Benzamide]	–	–	–	–	–	–	–	124 to 126	333	–	128	–	–	343	–	–
O=C(Nc1ncc([N+](=O)[O-])s1)c1cc([N+](=O)[O-])ccc1I [Ref. No. 6, 2-(2′-Iodo-5′-Nitro-Benzamido)-5-Nitro-Thiazole]	–	–	–	–	–	–	–	230 to 234	86.5	141	80.9	132	130	117	–	–
O=C(Nc1ccc2ccc(=O)oc2c1)c1cc([N+](=O)[O-])ccc1I [Ref. No. 4, 7-(2′-Iodo-5′-Nitro-Benzamido)-2H-1-Benzopyran-2-one]	> 500	15.9	> 500	> 500	> 500	395	> 500	273 to 277	–	–	–	–	–	–	–	–
NC(=O)c1cc(N)ccc1I [Ref. No. 13]	> 500	500	> 500	> 500	> 500	> 500	> 500	–	–	–	–	–	–	–	439	–
